Test [1] addresses T1, Myosin light chain kinase family member 4 (Homo sapiens) (UniProt Q86YV6).
T1 sequence (whole entry): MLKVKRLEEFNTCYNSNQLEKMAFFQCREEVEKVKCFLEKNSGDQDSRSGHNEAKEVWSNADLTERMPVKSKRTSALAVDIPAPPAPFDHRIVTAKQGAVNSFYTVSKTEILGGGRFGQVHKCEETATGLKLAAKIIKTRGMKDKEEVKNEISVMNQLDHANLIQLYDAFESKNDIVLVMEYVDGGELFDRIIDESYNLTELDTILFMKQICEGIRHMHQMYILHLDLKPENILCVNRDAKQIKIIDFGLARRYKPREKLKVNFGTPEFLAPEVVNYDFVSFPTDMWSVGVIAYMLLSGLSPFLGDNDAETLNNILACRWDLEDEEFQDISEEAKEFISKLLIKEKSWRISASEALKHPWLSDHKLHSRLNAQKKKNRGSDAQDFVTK
Kind of test: Selectivity interaction (KinomeScan (DiscoverX)) EUB0000695a MYLK4. As to conditions: at 100 nM.

Test [2] deals with Dual specificity mitogen-activated protein kinase kinase 1 (Homo sapiens, UniProt Q02750). Kind of test: Selectivity interaction (Kinase panel (Invitrogen)) EUB0000639a MAP2K1. As to conditions: at 200 nM.
In test [3] the target is Calcium/calmodulin-dependent protein kinase kinase 2 (Homo sapiens) (UniProt Q96RR4). Kind of test: Selectivity interaction (Kinase panel (Invitrogen)) EUB0000639a CAMKK2. As to conditions: at 200 nM.
Test [4] concerns the target T2, Inhibitor of nuclear factor kappa-B kinase subunit epsilon (Homo sapiens) (UniProt Q14164).
T2 sequence (whole entry): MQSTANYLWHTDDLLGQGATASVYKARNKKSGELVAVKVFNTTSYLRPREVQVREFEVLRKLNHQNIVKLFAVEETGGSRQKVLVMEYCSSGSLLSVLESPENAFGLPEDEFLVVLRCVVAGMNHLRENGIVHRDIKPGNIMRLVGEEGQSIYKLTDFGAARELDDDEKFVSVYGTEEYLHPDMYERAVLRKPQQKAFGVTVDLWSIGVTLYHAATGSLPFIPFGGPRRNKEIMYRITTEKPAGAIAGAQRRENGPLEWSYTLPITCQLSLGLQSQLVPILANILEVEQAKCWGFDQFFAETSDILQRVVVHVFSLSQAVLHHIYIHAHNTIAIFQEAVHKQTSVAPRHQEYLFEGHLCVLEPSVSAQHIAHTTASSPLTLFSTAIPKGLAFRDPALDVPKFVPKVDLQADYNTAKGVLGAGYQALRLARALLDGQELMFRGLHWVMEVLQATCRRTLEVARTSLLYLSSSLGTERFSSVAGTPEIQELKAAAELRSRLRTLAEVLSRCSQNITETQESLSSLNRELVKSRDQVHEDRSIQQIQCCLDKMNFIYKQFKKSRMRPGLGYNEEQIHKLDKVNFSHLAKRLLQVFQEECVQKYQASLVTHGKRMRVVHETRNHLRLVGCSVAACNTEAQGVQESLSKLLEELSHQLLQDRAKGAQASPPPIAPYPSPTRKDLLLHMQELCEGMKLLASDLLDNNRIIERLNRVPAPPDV
Kind of test: Selectivity interaction (ActivX KiNativ screen (kinase selectivity in THP-1 cell lysates)) EUB0000639a IKBKE. It counts as subcellular. As to conditions: lysate.

The target in test [5] is T3, Histone-lysine N-methyltransferase EHMT2 (Homo sapiens) (UniProt Q96KQ7).
T3 sequence (whole entry): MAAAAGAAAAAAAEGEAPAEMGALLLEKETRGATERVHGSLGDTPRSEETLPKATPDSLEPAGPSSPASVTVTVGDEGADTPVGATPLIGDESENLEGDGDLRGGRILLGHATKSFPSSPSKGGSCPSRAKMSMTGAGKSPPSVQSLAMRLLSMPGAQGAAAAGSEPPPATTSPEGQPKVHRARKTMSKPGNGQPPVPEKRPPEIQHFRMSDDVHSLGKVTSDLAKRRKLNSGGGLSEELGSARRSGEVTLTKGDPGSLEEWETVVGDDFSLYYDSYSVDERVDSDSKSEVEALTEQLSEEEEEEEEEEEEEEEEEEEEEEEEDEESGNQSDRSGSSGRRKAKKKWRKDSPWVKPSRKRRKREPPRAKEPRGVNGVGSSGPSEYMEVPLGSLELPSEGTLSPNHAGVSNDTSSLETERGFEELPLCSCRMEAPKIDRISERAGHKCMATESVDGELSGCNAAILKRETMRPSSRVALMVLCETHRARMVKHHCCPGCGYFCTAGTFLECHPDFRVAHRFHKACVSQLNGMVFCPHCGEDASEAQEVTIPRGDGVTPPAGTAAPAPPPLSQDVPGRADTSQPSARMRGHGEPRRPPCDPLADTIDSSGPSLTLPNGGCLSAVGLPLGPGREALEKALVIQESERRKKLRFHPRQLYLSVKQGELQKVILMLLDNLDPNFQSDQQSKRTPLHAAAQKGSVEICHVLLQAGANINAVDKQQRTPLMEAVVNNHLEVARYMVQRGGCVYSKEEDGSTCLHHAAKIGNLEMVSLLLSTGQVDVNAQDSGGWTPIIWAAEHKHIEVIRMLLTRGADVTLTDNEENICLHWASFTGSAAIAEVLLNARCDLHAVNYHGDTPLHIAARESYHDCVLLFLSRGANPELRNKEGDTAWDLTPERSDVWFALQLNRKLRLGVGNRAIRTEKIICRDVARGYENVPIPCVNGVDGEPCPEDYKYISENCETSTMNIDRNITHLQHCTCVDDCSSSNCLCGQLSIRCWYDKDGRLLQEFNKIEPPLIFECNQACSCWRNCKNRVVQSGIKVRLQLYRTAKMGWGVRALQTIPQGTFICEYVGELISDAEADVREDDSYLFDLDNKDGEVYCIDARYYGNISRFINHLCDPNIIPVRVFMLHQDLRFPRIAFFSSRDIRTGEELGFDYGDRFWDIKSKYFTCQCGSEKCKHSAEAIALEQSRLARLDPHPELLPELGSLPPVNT
As to conditions: at 1 µM.

Test [6] relates to Tyrosine-protein kinase ABL1 (Homo sapiens), P00519 [T315I]. Kind of test: Selectivity interaction (KinomeScan (DiscoverX)) EUB0000229b ABL1. As to conditions: at 1 µM.
The target of test [7] is Tyrosine-protein kinase Srms (Homo sapiens) (UniProt Q9H3Y6). Kind of test: Selectivity interaction (KinomeScan (DiscoverX)) EUB0000229b SRMS. As to conditions: at 10 µM.
Test [8] addresses Serine/threonine-protein kinase pim-1 (Homo sapiens, UniProt P11309). Nature of the test: Selectivity interaction (KinomeScan (DiscoverX)) EUB0000229b PIM1. As to conditions: at 10 µM.
Test [9] deals with Serine/threonine-protein kinase Chk2 (Homo sapiens) (UniProt O96017). Nature of the test: Selectivity interaction (Kinase panel (KiNativ target engagement assay in Jurkat cells)) EUB0001635a CHEK2. Format: cell-based. As to conditions: at 1 µM.

Where only a bound is given, the exact number is not on record here.

Serine/threonine-protein kinase Chk2 (Homo sapiens), sequence (O96017 whole entry): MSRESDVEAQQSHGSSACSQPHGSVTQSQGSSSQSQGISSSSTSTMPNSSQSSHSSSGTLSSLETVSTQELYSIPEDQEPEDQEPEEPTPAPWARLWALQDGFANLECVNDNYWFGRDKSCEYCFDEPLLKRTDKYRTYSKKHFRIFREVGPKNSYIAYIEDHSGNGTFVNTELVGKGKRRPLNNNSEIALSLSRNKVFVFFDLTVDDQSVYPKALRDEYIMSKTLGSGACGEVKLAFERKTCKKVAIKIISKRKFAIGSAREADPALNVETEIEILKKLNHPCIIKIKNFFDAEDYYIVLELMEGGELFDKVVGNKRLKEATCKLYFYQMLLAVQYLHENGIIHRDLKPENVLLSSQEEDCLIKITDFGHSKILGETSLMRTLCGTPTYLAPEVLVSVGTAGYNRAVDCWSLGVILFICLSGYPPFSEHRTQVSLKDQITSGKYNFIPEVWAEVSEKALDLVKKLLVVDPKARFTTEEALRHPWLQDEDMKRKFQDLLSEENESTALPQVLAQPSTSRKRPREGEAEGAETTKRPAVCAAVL
Calcium/calmodulin-dependent protein kinase kinase 2 (Homo sapiens), sequence (Q96RR4 2-588 limits assumed): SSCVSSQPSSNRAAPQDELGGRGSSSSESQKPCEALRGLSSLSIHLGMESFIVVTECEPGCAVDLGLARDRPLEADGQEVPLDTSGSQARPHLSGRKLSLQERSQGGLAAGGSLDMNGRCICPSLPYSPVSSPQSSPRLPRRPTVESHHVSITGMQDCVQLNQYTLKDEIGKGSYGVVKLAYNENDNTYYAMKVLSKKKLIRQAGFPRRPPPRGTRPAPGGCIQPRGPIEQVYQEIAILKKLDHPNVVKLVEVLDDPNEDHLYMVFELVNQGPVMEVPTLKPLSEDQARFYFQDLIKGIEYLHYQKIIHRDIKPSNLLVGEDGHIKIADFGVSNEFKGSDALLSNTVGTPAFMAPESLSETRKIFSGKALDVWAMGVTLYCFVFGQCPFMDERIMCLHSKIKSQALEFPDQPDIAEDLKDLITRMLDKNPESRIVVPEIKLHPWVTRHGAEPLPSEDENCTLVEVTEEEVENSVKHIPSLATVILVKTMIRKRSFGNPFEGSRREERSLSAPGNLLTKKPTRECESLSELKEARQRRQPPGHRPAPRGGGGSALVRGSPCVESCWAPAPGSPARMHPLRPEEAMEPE
Serine/threonine-protein kinase pim-1, sequence (P11309 whole entry, looked up): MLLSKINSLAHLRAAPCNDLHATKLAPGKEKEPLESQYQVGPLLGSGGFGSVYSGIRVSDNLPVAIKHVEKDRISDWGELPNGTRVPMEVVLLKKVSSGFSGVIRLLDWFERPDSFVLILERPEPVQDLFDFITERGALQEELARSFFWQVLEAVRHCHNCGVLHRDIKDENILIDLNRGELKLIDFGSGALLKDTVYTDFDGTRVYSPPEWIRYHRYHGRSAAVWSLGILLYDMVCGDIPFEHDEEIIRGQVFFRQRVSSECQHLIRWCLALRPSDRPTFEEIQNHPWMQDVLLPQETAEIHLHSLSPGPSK
Tyrosine-protein kinase Srms (Homo sapiens), sequence (Q9H3Y6 whole entry): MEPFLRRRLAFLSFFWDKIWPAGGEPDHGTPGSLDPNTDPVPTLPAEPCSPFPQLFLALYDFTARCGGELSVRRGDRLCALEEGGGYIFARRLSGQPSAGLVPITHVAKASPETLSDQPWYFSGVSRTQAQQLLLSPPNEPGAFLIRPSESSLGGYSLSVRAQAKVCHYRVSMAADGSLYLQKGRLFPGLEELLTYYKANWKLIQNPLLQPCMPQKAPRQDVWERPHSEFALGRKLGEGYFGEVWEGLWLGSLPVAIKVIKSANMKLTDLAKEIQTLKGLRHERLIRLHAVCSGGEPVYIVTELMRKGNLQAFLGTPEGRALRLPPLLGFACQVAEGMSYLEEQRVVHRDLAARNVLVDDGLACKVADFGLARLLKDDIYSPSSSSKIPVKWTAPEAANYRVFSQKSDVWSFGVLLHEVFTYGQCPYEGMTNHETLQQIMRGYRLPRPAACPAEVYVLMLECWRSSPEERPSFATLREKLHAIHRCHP
Dual specificity mitogen-activated protein kinase kinase 1, sequence (Q02750 whole entry): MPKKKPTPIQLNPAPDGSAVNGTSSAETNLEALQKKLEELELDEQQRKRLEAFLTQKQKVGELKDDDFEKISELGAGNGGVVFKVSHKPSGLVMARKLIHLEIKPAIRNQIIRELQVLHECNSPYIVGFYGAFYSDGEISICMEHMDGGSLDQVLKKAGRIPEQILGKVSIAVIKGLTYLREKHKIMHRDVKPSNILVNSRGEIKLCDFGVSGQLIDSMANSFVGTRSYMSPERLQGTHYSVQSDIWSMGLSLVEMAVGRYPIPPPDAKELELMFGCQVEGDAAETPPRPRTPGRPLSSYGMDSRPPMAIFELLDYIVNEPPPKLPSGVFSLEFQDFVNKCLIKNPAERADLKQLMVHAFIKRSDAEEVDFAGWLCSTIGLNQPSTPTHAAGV

Regarding `Cc1cc(F)c(C(=O)Nc2cccc(-c3nncn3C(C)C)n2)cc1-n1cnc(C2CC2)c1`, the % of control in test [1] came to 100%.
With `CC[C@@H]1[C@H](F)C(=O)N[C@@H]1COc1nccc2cc(C(N)=O)c(OC)cc12` [ZIMLOVISERTIB], the % of inhibition in test [2] is 24.2%; in test [3], -1.97%; in test [4] (at 0.01 µM), 20.6%; in test [4] (at 0.04 µM), 7.3%; in [4] (at 0.2 µM), 30.8%; in [4] (at 1 µM), 60.2%. Further, in test [4] (at 5 µM), the % of inhibition came out at 82.3%.
The compound `CNCCN1CCC(c2cc(CN(C)C(=O)c3cccc(Oc4ccccc4)c3)ccn2)CC1` came in with a % activity in test [5] above 90%.
Regarding `COc1cc(N(C)c2ccnc3ccc(C(F)(F)F)cc23)cc(OC)c1OC`, the % binding was determined as 85% in [6], 60% in [7] and 69% in [8].
As to `C=CC(=O)Nc1ccc(C(=O)Nc2[nH]nc3c2CN(C(=O)N[C@H](CN(C)C)c2ccccc2)C3(C)C)cc1`, the % of engagement was determined as 5.2% in test [9] (Selectivity number of off-targets 0.0, Selectivity number of targets 233.0, Source Knowledge https://www.sciencedirect.com/science/article/pii/S2451945619300674?via%3Dihub) and 4.4% in [9].

(Values after ChEMBL document CHEMBL5465560, “Selectivity Literature for EUbOPEN Chemogenomic Library” (2024).)
